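Exposure lasted 48 hours, with cells grown in 96-well plates and compounds tested at five concentrations. GI50: concentration for 50% inhibition of growth.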 Calls of active or inactive are those of the source. Rule as the data show it: active = GI50 up to about 1.1 µM and inactive = higher.
Assays:
Assay in all cases: inhibition of tumour cell growth, NCI panel, 48 h
HOP-18 = tested on: HOP-18
SW-620 = tested on: SW-620
HL-60 = tested on: HL-60
NCI-H460 = tested on: NCI-H460
OVCAR-3 = tested on: OVCAR-3
SF-268 = tested on: SF-268
U-251 = tested on: U-251
SR = tested on: SR
UO-31 = tested on: UO-31
KM-20L2 = tested on: KM-20L2
LXFL 529 = tested on: LXFL 529
M19-MEL = tested on: M19-MEL
LOX IMVI = tested on: LOX IMVI
A549 = tested on: A549
SNB-78 = tested on: SNB-78
TK-10 = tested on: TK-10
M14 = tested on: M14
HCT-116 = tested on: HCT-116
K562 = tested on: K562
DLD-1 = tested on: DLD-1
SK-MEL-5 = tested on: SK-MEL-5
CCRF-CEM = tested on: CCRF-CEM
KM12 = tested on: KM12
NCI-H23 = tested on: NCI-H23
UACC-62 = tested on: UACC-62
COLO 205 = tested on: COLO 205
HOP-92 = tested on: HOP-92
Malme-3M = tested on: Malme-3M
A498 = tested on: A498
ACHN = tested on: ACHN
UACC-257 = tested on: UACC-257
HCT-15 = tested on: HCT-15
RXF 393 = tested on: RXF 393
SNB-19 = tested on: SNB-19
DMS-114 = tested on: DMS-114
SF-539 = tested on: SF-539
DMS-273 = tested on: DMS-273
HCC 2998 = tested on: HCC 2998
SK-OV-3 = tested on: SK-OV-3
OVCAR-8 = tested on: OVCAR-8
NCI-H522 = tested on: NCI-H522
MOLT-4 = tested on: MOLT-4
HT-29 = tested on: HT-29
SF-295 = tested on: SF-295
SK-MEL-2 = tested on: SK-MEL-2
OVCAR-5 = tested on: OVCAR-5
SNB-75 = tested on: SNB-75
IGROV-1 = tested on: IGROV-1
SK-MEL-28 = tested on: SK-MEL-28
EKVX = tested on: EKVX
XF498 = tested on: XF498
SN12C = tested on: SN12C
OVCAR-4 = tested on: OVCAR-4
RPMI-8226 = tested on: RPMI-8226
CAKI-1 = tested on: CAKI-1
NCI-H226 = tested on: NCI-H226
786-0 = tested on: 786-0
HOP-62 = tested on: HOP-62

SMILES: COC[C@@H](Cc1ccc(OC)c(OC)c1)[C@@H](COC)Cc1ccc(OC)c(OC)c1
- GI50 (HOP-18): > 100 µM (inactive)
- GI50 (SW-620): > 100 µM (inactive)
- GI50 (HL-60): > 100 µM (inactive)
- GI50 (NCI-H460): > 100 µM (inactive)
- GI50 (OVCAR-3): > 100 µM (inactive)
- GI50 (SF-268): > 100 µM (inactive)
- GI50 (U-251): > 100 µM (inactive)
- GI50 (SR): 95.3 µM (inactive)
- GI50 (UO-31): > 100 µM (inactive)
- GI50 (KM-20L2): > 100 µM (inactive)
- GI50 (LXFL 529): 81.7 µM (inactive)
- GI50 (M19-MEL): > 100 µM (inactive)
- GI50 (LOX IMVI): > 100 µM (inactive)
- GI50 (A549): > 100 µM (inactive)
- GI50 (SNB-78): > 100 µM (inactive)
- GI50 (TK-10): > 100 µM (inactive)
- GI50 (M14): > 100 µM (inactive)
- GI50 (HCT-116): 94 µM (inactive)
- GI50 (K562): > 100 µM (inactive)
- GI50 (DLD-1): > 100 µM (inactive)
- GI50 (SK-MEL-5): 51.9 µM (inactive)
- GI50 (CCRF-CEM): 56.5 µM (inactive)
- GI50 (KM12): > 100 µM (inactive)
- GI50 (NCI-H23): > 100 µM (inactive)
- GI50 (UACC-62): > 100 µM (inactive)
- GI50 (COLO 205): > 100 µM (inactive)
- GI50 (HOP-92): 57.9 µM (inactive)
- GI50 (Malme-3M): > 100 µM (inactive)
- GI50 (A498): > 100 µM (inactive)
- GI50 (ACHN): > 100 µM (inactive)
- GI50 (UACC-257): > 100 µM (inactive)
- GI50 (HCT-15): > 100 µM
- GI50 (RXF 393): > 100 µM (inactive)
- GI50 (SNB-19): > 100 µM (inactive)
- GI50 (DMS-114): 56.5 µM (inactive)
- GI50 (SF-539): > 100 µM (inactive)
- GI50 (DMS-273): 76.6 µM (inactive)
- GI50 (HCC 2998): > 100 µM (inactive)
- GI50 (SK-OV-3): > 100 µM (inactive)
- GI50 (OVCAR-8): > 100 µM (inactive)
- GI50 (NCI-H522): 64.1 µM (inactive)
- GI50 (MOLT-4): 60.3 µM (inactive)
- GI50 (HT-29): > 100 µM (inactive)
- GI50 (SF-295): > 100 µM (inactive)
- GI50 (SK-MEL-2): > 100 µM (inactive)
- GI50 (OVCAR-5): > 100 µM (inactive)
- GI50 (SNB-75): > 100 µM (inactive)
- GI50 (IGROV-1): > 100 µM (inactive)
- GI50 (SK-MEL-28): > 100 µM (inactive)
- GI50 (EKVX): > 100 µM (inactive)
- GI50 (XF498): > 100 µM (inactive)
- GI50 (SN12C): > 100 µM (inactive)

SMILES: O=C(O)CCNS(=O)(=O)c1ccc2ccccc2c1
- GI50 (HOP-18): > 100 µM (inactive)
- GI50 (SW-620): > 100 µM (inactive)
- GI50 (HL-60): > 100 µM (inactive)
- GI50 (NCI-H460): > 100 µM (inactive)
- GI50 (OVCAR-3): > 100 µM (inactive)
- GI50 (SF-268): > 100 µM (inactive)
- GI50 (U-251): > 100 µM (inactive)
- GI50 (UO-31): > 100 µM (inactive)
- GI50 (KM-20L2): > 100 µM (inactive)
- GI50 (LXFL 529): > 100 µM (inactive)
- GI50 (M19-MEL): > 100 µM (inactive)
- GI50 (LOX IMVI): > 100 µM (inactive)
- GI50 (A549): > 100 µM (inactive)
- GI50 (OVCAR-4): > 100 µM (inactive)
- GI50 (RPMI-8226): > 100 µM (inactive)
- GI50 (TK-10): > 100 µM (inactive)
- GI50 (M14): > 100 µM (inactive)
- GI50 (K562): > 100 µM (inactive)
- GI50 (DLD-1): > 100 µM (inactive)
- GI50 (SK-MEL-5): > 100 µM (inactive)
- GI50 (CCRF-CEM): > 100 µM (inactive)
- GI50 (KM12): > 100 µM (inactive)
- GI50 (NCI-H23): > 100 µM (inactive)
- GI50 (UACC-62): > 100 µM (inactive)
- GI50 (COLO 205): > 100 µM (inactive)
- GI50 (HOP-92): > 100 µM (inactive)
- GI50 (Malme-3M): > 100 µM (inactive)
- GI50 (A498): > 100 µM (inactive)
- GI50 (ACHN): > 100 µM (inactive)
- GI50 (UACC-257): > 100 µM (inactive)
- GI50 (HCT-15): > 100 µM
- GI50 (RXF 393): > 10 µM (inactive)
- GI50 (SNB-19): > 100 µM (inactive)
- GI50 (SF-539): > 100 µM (inactive)
- GI50 (DMS-273): > 100 µM (inactive)
- GI50 (HCC 2998): > 100 µM (inactive)
- GI50 (SK-OV-3): > 100 µM (inactive)
- GI50 (CAKI-1): > 100 µM (inactive)
- GI50 (OVCAR-8): > 100 µM (inactive)
- GI50 (NCI-H522): > 100 µM (inactive)
- GI50 (MOLT-4): > 100 µM (inactive)
- GI50 (HT-29): > 100 µM (inactive)
- GI50 (SF-295): > 100 µM (inactive)
- GI50 (SK-MEL-2): > 100 µM (inactive)
- GI50 (OVCAR-5): > 100 µM (inactive)
- GI50 (SNB-75): > 100 µM (inactive)
- GI50 (NCI-H226): > 100 µM (inactive)
- GI50 (IGROV-1): > 100 µM (inactive)
- GI50 (SK-MEL-28): > 100 µM (inactive)
- GI50 (EKVX): > 100 µM (inactive)
- GI50 (XF498): > 100 µM (inactive)
- GI50 (786-0): > 100 µM (inactive)
- GI50 (SN12C): > 100 µM (inactive)

SMILES: CCOc1cc2ccc3c4cc(OC)c(OC)cc4cnc3c2cc1OCC
- GI50 (HOP-18): > 100 µM (inactive)
- GI50 (SW-620): > 100 µM (inactive)
- GI50 (NCI-H460): > 100 µM (inactive)
- GI50 (OVCAR-3): > 100 µM (inactive)
- GI50 (SF-268): > 100 µM (inactive)
- GI50 (U-251): > 100 µM (inactive)
- GI50 (UO-31): > 100 µM (inactive)
- GI50 (KM-20L2): > 100 µM (inactive)
- GI50 (LXFL 529): > 100 µM (inactive)
- GI50 (M19-MEL): > 100 µM (inactive)
- GI50 (A549): > 100 µM (inactive)
- GI50 (SNB-78): > 100 µM (inactive)
- GI50 (OVCAR-4): > 100 µM (inactive)
- GI50 (RPMI-8226): > 100 µM (inactive)
- GI50 (TK-10): > 100 µM (inactive)
- GI50 (M14): > 100 µM (inactive)
- GI50 (HCT-116): > 100 µM (inactive)
- GI50 (K562): > 100 µM (inactive)
- GI50 (DLD-1): > 100 µM (inactive)
- GI50 (SK-MEL-5): > 100 µM (inactive)
- GI50 (CCRF-CEM): > 100 µM (inactive)
- GI50 (KM12): > 100 µM (inactive)
- GI50 (NCI-H23): > 100 µM (inactive)
- GI50 (UACC-62): > 100 µM (inactive)
- GI50 (COLO 205): > 100 µM (inactive)
- GI50 (Malme-3M): > 100 µM (inactive)
- GI50 (A498): > 100 µM (inactive)
- GI50 (ACHN): > 100 µM (inactive)
- GI50 (UACC-257): > 100 µM (inactive)
- GI50 (HCT-15): > 100 µM
- GI50 (SNB-19): > 100 µM (inactive)
- GI50 (DMS-114): > 100 µM (inactive)
- GI50 (SF-539): > 100 µM (inactive)
- GI50 (HCC 2998): > 100 µM (inactive)
- GI50 (SK-OV-3): > 100 µM (inactive)
- GI50 (CAKI-1): > 100 µM (inactive)
- GI50 (OVCAR-8): > 100 µM (inactive)
- GI50 (NCI-H522): > 100 µM (inactive)
- GI50 (MOLT-4): > 100 µM (inactive)
- GI50 (HT-29): > 100 µM (inactive)
- GI50 (SF-295): > 100 µM (inactive)
- GI50 (SK-MEL-2): > 100 µM (inactive)
- GI50 (OVCAR-5): > 100 µM (inactive)
- GI50 (SNB-75): > 100 µM (inactive)
- GI50 (HOP-62): > 100 µM (inactive)
- GI50 (IGROV-1): > 100 µM (inactive)
- GI50 (SK-MEL-28): > 100 µM (inactive)
- GI50 (EKVX): > 100 µM (inactive)
- GI50 (XF498): > 100 µM (inactive)
- GI50 (786-0): > 100 µM (inactive)
- GI50 (SN12C): > 100 µM (inactive)
